Target: T1, FES (FPS) (Homo sapiens, UniProt P07332)
T1 construct: purchased Thermo Fisher Scientific (Life Technologies) SelectScreen
Test: SelectScreen Z'LYTE
Type: biochemical
Summary of the method: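 SelectScreen broad panel; activity (Z'LYTE, Adapta) plus binding formats. ATP: Km app for CSF1R Z'LYTE; 10 for CAMK1 Adapta. Readout = % per kinase.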

T1 sequence (P07332 whole entry): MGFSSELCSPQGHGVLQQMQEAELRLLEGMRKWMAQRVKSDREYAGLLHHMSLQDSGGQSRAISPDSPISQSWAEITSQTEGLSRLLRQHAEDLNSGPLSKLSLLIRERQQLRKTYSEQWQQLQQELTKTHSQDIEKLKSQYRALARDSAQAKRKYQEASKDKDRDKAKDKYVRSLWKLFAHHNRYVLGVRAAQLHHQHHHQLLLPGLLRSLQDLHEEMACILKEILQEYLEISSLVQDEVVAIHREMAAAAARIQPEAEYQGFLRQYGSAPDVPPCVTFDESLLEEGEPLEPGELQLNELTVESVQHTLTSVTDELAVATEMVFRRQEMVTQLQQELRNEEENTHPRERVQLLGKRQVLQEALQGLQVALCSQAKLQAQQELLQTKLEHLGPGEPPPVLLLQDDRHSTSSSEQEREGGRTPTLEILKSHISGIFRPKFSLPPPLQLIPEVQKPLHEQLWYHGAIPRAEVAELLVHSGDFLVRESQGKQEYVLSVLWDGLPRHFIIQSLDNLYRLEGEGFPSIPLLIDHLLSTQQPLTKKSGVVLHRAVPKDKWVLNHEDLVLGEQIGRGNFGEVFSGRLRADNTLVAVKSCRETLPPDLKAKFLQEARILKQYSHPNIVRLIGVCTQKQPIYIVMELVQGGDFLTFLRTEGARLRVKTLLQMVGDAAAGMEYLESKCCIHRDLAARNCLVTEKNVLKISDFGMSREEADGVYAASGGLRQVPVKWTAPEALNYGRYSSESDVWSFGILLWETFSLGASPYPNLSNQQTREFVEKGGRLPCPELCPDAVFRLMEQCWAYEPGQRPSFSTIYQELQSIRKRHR

Structure (SMILES): CN(C(=O)CN1CCOCC1)c1ccc2sc3c(-c4cccc5c(=O)cc(N6CC7CCC(C6)O7)oc45)cccc3c2c1 [NU5455]
- inhibition at 1 µM: 10.4%
